# Experimental data: a melting point compilation (Tetko et al.; mined from patent text by program, amines drawn as free bases though some values may be those of a salt)
row,Structure (SMILES),melting point [°C]
1,"O=C(OCC1CCCN1)N1CCN(c2cc(N3CCCC3)nc(N3CCCC3)n2)CC1 (single isomer, unassigned; (+))",137 to 138
2,CC(=O)CNC(=O)Nc1cc(-c2c(-c3ccc(F)c(C)c3)nc3cccnn23)ccn1,208 to 209
3,O=c1oc2c(c(O)c1C(c1ccccc1)C1CC1)CCCCCCCCCC2 (centres undefined),97.8 to 99
4,CCOC(=O)Cc1sc(NC(=O)Nc2ccccc2)nc1-c1ccc(Cl)cc1,192 to 193
5,CCOc1ccccc1C1(Cl)C(=O)Nc2ccc(Cl)cc21 (centres undefined),198
6,CC1(C)Cc2c(N)c(Cl)cc(C(=O)NC3CCN(CCCC4(C)OCCO4)CC3)c2O1,136
7,CN(C(=O)OC(C)(C)C)c1cc(Oc2ccc(OCc3ccccc3)cc2)ccc1[N+](=O)[O-],108 to 110
8,COc1cccc(C(=O)c2cccc(Cl)c2)c1,52
9,NC(=O)c1c(Cl)c(-c2cncs2)n2c1CCCC2,227
10,Cc1cc(C2(C(F)(F)F)CC(C(F)(F)F)=NO2)ccc1NC(=O)c1cccc(I)c1C(=O)NC(C)C (centres undefined),240 to 242
11,O=C(O)C1CCc2c(c3ccccc3n2C(=O)c2cccc(Cl)c2)C1 (centres undefined),179 to 181
12,CC(O)c1cc(Cl)ccc1O (centres undefined),98
13,O=C(CC1=NCCN1)N1CCOc2ccc(S(=O)(=O)c3ccccc3)cc21,114 to 116
14,CC(C)c1nc(COC(N)=O)n(Cc2ccccn2)c1Sc1cc(Cl)cc(Cl)c1,127 to 130
15,O=C([C@@H]1C[C@@H]2CCCC[C@@H]2N1)N1CCCC1,83
16,COC(=O)c1c(C)sc2cc(CCn3ccnc3)ccc12,90 to 92
17,CC(C)[C@H](OCc1c(F)cccc1F)[C@H]1[C@H]([N+](=O)[O-])[C@H](c2ccccc2)N[C@@H]1C(=O)NCC(=O)O,80 to 81
18,Fc1cc2c(c(-c3c(Cl)cccc3Cl)c1)OC(CNCC1CC1)C2 (centres undefined),130 to 133
19,COC(=O)C=Cc1cc(NC2CCN(Cc3ccccc3)CC2)ccc1C,140 to 142
20,COC(=O)C1=C(C)NC(N)=C(C(=O)OC(C)C)C1c1cccc([N+](=O)[O-])c1 (centres undefined),167
21,COC(=O)CCn1cc(Cc2cccnc2)c2cc(CCC(=O)O)ccc21,108 to 110
22,Cc1cccc(-c2nc3cccnn3c2-c2ccnc(NCCN3CCCCC3)c2)c1,143 to 144
23,c1ccc(-c2cc(-c3csc(Nc4ccccn4)n3)on2)cc1,211 to 215
24,COc1cc(NC(C)=O)c(Cl)cc1C(=O)NC1CC2CCCCN2C1 (centres undefined),151 to 153
25,CCCC(CCC)(CCC(N)=S)C(CCC)(CCC)C(N)=S,87 to 88

row,Structure (SMILES),melting point [°C]
1,COc1ccc(Nc2nc(Cl)nc(Cl)n2)cc1F,134
2,O=C1CC(c2ccccc2)C(c2ccccc2)=NN1C(=O)Nc1ccc(C(F)(F)F)cc1 (centres undefined),164 to 166
3,O=C(O)c1cc(-n2c(-c3cccs3)cc3c2CCCC3)ccc1O,211 to 213
4,O=C1OC(CCC#Cc2ccccc2)C(O)=C1O (centres undefined),145 to 146
5,Cc1nc(N2CCC(Cc3ccc(C(F)(F)F)cc3)C2=O)sc1C(=O)NCc1ccccc1 (centres undefined),174 to 175
6,COc1ccc2cc(C(C)=O)cc(F)c2c1,96 to 97
7,COc1cc(Nc2c(C#N)cnc3cc(C#Cc4cnn(CCN5CCOCC5)c4)sc23)c(Cl)cc1Cl,> 200
8,CN(c1cccc(-c2ccnc3c([N+](=O)[O-])cnn23)c1)S(=O)(=O)c1ccccc1,177 to 179
9,Cc1c(CCc2ccccc2)c(=O)oc2cc(OCc3nnn[nH]3)cc(OCc3nnn[nH]3)c12,248 to 250
10,CNC(=S)NN1Cc2c(C)ccc(C)c2C1,177 to 178
11,COC1C2=C3C(=CN1OC)OCCC3CC(C(N)=O)C2 (centres undefined),224 to 226
12,Cn1c(CN2C(=O)c3ccccc3C2=O)c(-c2ccc(O)cc2)c2cc(Cl)ccc2c1=O,307 to 308
13,CCCCCCCCCCCCCCS(N)(=O)=O,92 to 93
14,CCOC(=O)c1cc(CC)c2ccc(C(C)C)ccc1-2,48 to 49
15,CCCCCCCCCCCC(=O)OC1C(C)C(c2ccccc2)N(O)C(c2ccccc2)C1C (centres undefined),108 to 112
16,CCOC(=O)C1=Cc2cc(Br)c(F)cc2OC1C(F)(F)F (centres undefined),98.5 to 100
17,CCc1c(C)[nH]c(=O)c(CC)c1Oc1cc(C)cc(C)c1,180
18,COCC1CN(c2ccc(C3CCC(OC)CC3)cc2)C(=O)O1 (centres undefined),82 to 83
19,OC1(Cc2ccccc2)CCN(CCC(c2ccccc2)(c2ccccc2)c2ccccc2)CC1,72 to 74
20,O=C(NCc1ccn(-c2cc3nc(C(=O)O)c(=O)[nH]c3cc2C(F)(F)F)c1)Nc1cccc(F)c1,169 to 171
21,CCOC(=O)c1cc(-c2csc(N)n2)[nH]n1,205 to 207
22,C=C1c2ccccc2CCc2ccccc21,65.1
23,CC(C)c1ccc2ncn(/C=C/C(=O)NCCNCc3cccnc3)c(=O)c2c1,121 to 124
24,CC1(C)CN(CC=CC(=O)Nc2cc3c(Nc4ccc(F)c(Cl)c4)ncnc3cc2OCC2CC2)CC(=O)O1,140 to 142
25,CC(=O)c1cccc(NC(=O)c2ccc3oc(COCc4ccccc4)cc3c2)c1O,92 to 94

row,Structure (SMILES),melting point [°C]
1,CC(C(=O)O)c1ccc(C=C2CCCC2O)cc1 (centres undefined),125 to 132
2,O=C1CCC(CCN2CC(N3CCOCC3)C2)(c2ccc(Cl)c(Cl)c2)CN1Cc1ccc(-c2ccccc2)cc1 (centres undefined),72 to 82
3,CC(C)C1(C)NC(c2ccccc2C(F)(F)F)=NC1=O (centres undefined),109 to 110
4,CCNC(=O)Nc1nc2cc(-c3cccnc3)cc(N3CCC(N(C)C)C3)n2n1 (centres undefined),248 to 250
5,COc1ccc(C2=NOC(CN=C=S)C2)cc1 (centres undefined),92 to 94
6,Cn1ncc(C(=O)O)c1C(=O)Nc1ccn2nc(N3CCCC3)nc2c1,> 250
7,FC(F)Oc1ccc(CN(C(=Nc2ccccc2)N(Cc2ccc(OC(F)F)cc2)C2CCCC2)C2CCCC2)cc1,86.5 to 88
8,C[C@H]1Oc2ccc(F)cc2N(C)C(=O)[C@H]1NC(=O)OC(C)(C)C,129 to 133
9,COc1cn(C(C)=O)c2ccc(F)cc12,124 to 125
10,COc1ccc(Nc2ccccc2CCC(=O)c2ccccc2)cc1,110 to 112
11,COc1cc2c(Nc3ccc(Oc4ccccc4OC)cc3)c(C#N)cnc2cc1F,146 to 150
12,CC(=O)N1CCC(c2ccc(S(N)(=O)=O)cc2)CC1,196 to 197
13,COc1ccc(OC(=O)N2CCCC2=O)cc1,133 to 134
14,CN(C)C(=O)Cc1ccc(CC(=O)O)cc1,163 to 165
15,COCc1c[nH]c(-c2ccc(OCC(O)CO)cc2)n1 (centres undefined),154 to 156
16,CCOCc1nc2c(N)nc3cc(OCCCc4cccs4)ccc3c2n1CC(C)(C)NS(C)(=O)=O,202 to 203
17,COc1cc2c(cc1OC)C(c1sc(N)nc1C)=NCC2,233 to 237
18,O=Cc1cc([N+](=O)[O-])ccc1OC/C=C/CCl,65 to 66
19,Oc1ccc(OCc2ccccc2)c2ccccc12,118 to 119
20,CC(C)S(=O)(=O)c1cccc(OS(C)(=O)=O)n1,70.5 to 71.5
21,O=C(NC(Cc1ccc(OCc2ccc(C(F)(F)F)cc2)cc1)C(=O)O)c1cc2cc(-c3ccc(Cl)cc3)ccc2s1 (centres undefined),198
22,NCCc1ccc(N2C(=O)N(c3ccc(Cl)cc3Cl)Cc3cnc(Nc4ccccc4)nc32)cc1,117 to 121
23,OCCc1coc(-c2ccc3ccccc3c2)n1,96 to 98
24,COc1cc2ncn(CCCCCl)c(=O)c2cc1OC,117
25,CCOC(=O)c1ccc(NCCCCCCCCCCCCCC[Si](C)(C)C)cc1,91 to 92

row,Structure (SMILES),melting point [°C]
1,O=S(=O)(Cl)c1ccc(-c2ccc(F)cc2)s1,82 to 85
2,O=c1cc(-c2cnccn2)ss1,181
3,Cc1cccc(C)c1NC(=O)CC1c2ccccc2Oc2ccccc21,249 to 250
4,CCOC(=O)C1=Cc2cccc(/C=C/C(=O)O)c2OCC1,166 to 168
5,COC(=O)C(c1ccc(NC(C)=O)cc1)C1CC1 (centres undefined),159 to 162
6,CCOC(=O)c1cn(-c2c(F)cc(F)c([N+](=O)[O-])c2F)c2c(Cl)c(F)c(F)cc2c1=O,167 to 169
7,CCCCCCNC(=O)C1CCCN1 (centres undefined),61 to 64
8,COc1cc2ccc(CC(=O)Cl)cc2cc1OC,51 to 62
9,CCc1ccccc1-c1nc(-c2ccc(Cl)cc2)n[nH]1,118 to 120
10,COc1cc2cnnc(N3CCC(CCN(C)C(=O)NC4CCCCC4)CC3)c2cc1OC,204 to 206
11,CC(=O)c1ccc2occ(C#N)c(=O)c2c1,170 to 172
12,COc1ccc(C=CC(=O)Nc2ccncc2)c2c1OC1(CCCC1)C2,124 to 128
13,CCC1CC(=O)N(Cc2ccc(NC(=O)C(C)(C)C)cc2)N=C1c1ccc(OC)c(OC)c1 (centres undefined),117
14,O=C(NCCC(=O)N1CCOCC1)c1ccc(-c2ccc3nnn(Cc4ccc5ncccc5c4)c3n2)cc1F,212 to 215
15,CCCCn1c(C)nnc1SC(N)=O,112 to 114
16,CN1CCN(c2ccc(NC=C3C(=O)NC(=O)c4ccc(OCCN5CCOCC5)cc43)cc2)CC1,142 to 143
17,CCCCCCC(CCCCCC)N1C(=O)c2ccc3c4cccc5c(NC(C)=O)ccc(c6ccc(c2c36)C1=O)c54,> 230
18,Cc1ccc(C(=O)Nc2ccc(C)c(-c3nc(S(C)(=O)=O)nc4c3CNC(=O)N4c3c(F)cccc3F)c2)cc1F,> 270
19,COc1c2c(cc3c(C)cc(=O)oc13)CC(C)O2 (centres undefined),113 to 115
20,CC1(C)Oc2ccc(C#N)cc2C(n2ccccc2=O)C1=O (centres undefined),178
21,CCOC1(OCC)CCC2(CC1)c1cc(O)c(O)cc1CC(C(=O)O)N2C(=O)OCc1ccccc1 (centres undefined),132 to 133
22,CC(C)NC1=NS(=O)(=O)c2cc(Cl)cc(N)c2N1,> 230
23,COc1cccc2c1nc(-c1c(F)cccc1F)n2CC=C(C)C,101 to 103
24,Cc1ccccc1NC(=O)Nc1ccc(-c2c(C(C)C)sc3ncnc(N)c23)cc1,233 to 234
